Laboratory results published in patent US9452225B2, “GLP-1 prodrugs” (Novo Nordisk A/S, priority 2012, dated 2016).
Numbered stars: 1 amine (or outer) side, 2 acyl side, 3 side chain; on linkers, the order of the positions; unused ones are H or OH. Square brackets hold non-standard residues; d marks the D form. Side chains are listed from the residue outwards. Peptide text beside a SMILES is read from it. * marks the point of attachment. Lactoyl(3-(imidazol-4-yl)) = O=C([C@@H](O)Cc1c[nH]cn1)*; C18 diacid = O=C(O)CCCCCCCCCCCCCCCCC(=O)*; γGlu = O=C(O)[C@H](CCC(=O)[*:2])N[*:1]; AEEA = NCCOCCOCC(=O)O; Aib = CC(C)(N)C(=O)O

Legend:
[1] = molecular target: T1, human GLP-1 receptor (Homo sapiens, UniProt P43220); test: GLP-1 receptor binding, SPA displacement of 125I-GLP-1, low albumin; conditions: low albumin (0.005% HSA)
T1 construct: expressed in transfected cells; host or cells: BHK cells, clone FCW467-12A (parent line BHKTS13), membranes
T1 sequence (P43220 24-463): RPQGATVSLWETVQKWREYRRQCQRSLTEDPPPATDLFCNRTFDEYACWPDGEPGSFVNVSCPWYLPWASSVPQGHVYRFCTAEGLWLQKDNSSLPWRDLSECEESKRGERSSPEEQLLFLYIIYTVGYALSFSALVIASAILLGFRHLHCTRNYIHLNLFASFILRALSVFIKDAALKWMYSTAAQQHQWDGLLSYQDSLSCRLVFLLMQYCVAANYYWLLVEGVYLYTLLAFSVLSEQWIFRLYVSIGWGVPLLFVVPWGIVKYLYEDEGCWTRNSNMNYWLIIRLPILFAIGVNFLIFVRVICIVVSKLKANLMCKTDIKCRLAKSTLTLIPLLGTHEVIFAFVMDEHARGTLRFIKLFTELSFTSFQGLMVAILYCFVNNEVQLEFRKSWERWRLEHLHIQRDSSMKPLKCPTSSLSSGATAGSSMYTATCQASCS
Experimental: The purpose of this experiment is to test the receptor binding activity of the GLP-1 parent drugs of the prodrugs of the invention. The receptor binding is a measure of affinity of a parent drug for the human GLP-1 receptor. The parent GLP-1 drugs of Examples B2.1, B2.2, B2.3, B2.4, and B2.5 were tested as described below.
The receptor binding of the GLP-1 drugs to the human GLP-1 receptor was measured in a competitive binding assay. In this type of assay a labelled ligand (in this case ^125I-GLP-1) is bound to the receptor. Each drug is added in a series of concentrations to isolated membranes containing the human GLP-1 receptor and displacement of the labelled ligand is monitored. The receptor binding is reported as the concentration at which half of the labelled ligand is displaced from the receptor, the IC50 value. […]
The cells were grown at 5% CO2 in DMEM, 10% fetal calf serum, 1% Pen/Strep (Penicillin/Streptomycin) and 1.0 mg/ml of the selection marker G418. […] The resulting pellet was re-suspended in buffer 2 and the protein concentration was determined. […]

[2] = molecular target: T1, human GLP-1 receptor; test: In vitro potency, CRE luciferase reporter gene assay in whole BHK cells; assay type: cell-based; conditions: 0% HSA
Experimental: The purpose of this example is to test the activity, or potency, of, for example, the GLP-1 parent drugs of the prodrugs of the invention. The in vitro potency is the measure of human GLP-1 receptor activation in a whole cell assay. This method is an alternative to the method of Example 8.
In vitro potency was determined by measuring the response of the human GLP-1 receptor in a reporter gene assay. The assay was performed in a stably transfected BHK cell line that expresses the human GLP-1 receptor and contains the DNA for the cAMP response element (CRE) coupled to a promoter and the gene for firefly luciferase (CRE luciferase). When the human GLP-1 receptor is activated it results in the production of cAMP, which in turn results in the luciferase protein being expressed. When assay incubation is completed the luciferase substrate (luciferin) is added and the enzyme converts luciferin to oxyluciferin to produce bioluminescence. The luminescence is measured as the readout for the assay.
In order to test the binding of the derivatives to albumin, the assay may if desired be performed in the absence of serum albumin as well as in the presence of a considerably higher concentration of serum albumin (1.0% final assay concentration). […]
3) The cells were counted and adjusted to 5×10^3 cells/50 μl (1×10^5 cells/ml) in Assay Medium. […]

IC50 [1]	EC50 [2]	Structure (SMILES)
0.09 nM	4 pM	CC[C@H](C)[C@H](NC(=O)[C@H](Cc1ccccc1)NC(=O)[C@H](CCCCNC(=O)COCCOCCNC(=O)COCCOCCNC(=O)CC[C@H](NC(=O)CCCCCCCCCCCCCCCCC(=O)O)C(=O)O)NC(=O)[C@H](CCCNC(=N)N)NC(=O)[C@H](C)NC(=O)[C@H](C)NC(=O)[C@H](CCC(N)=O)NC(=O)[C@H](CCC(=O)O)NC(=O)[C@H](CCC(=O)O)NC(=O)[C@H](CC(C)C)NC(=O)[C@H](Cc1ccc(O)cc1)NC(=O)[C@H](CO)NC(=O)[C@H](CO)NC(=O)[C@@H](NC(=O)[C@H](CC(=O)O)NC(=O)[C@H](CO)NC(=O)[C@@H](NC(=O)[C@H](Cc1ccccc1)NC(=O)[C@@H](NC(=O)CNC(=O)[C@H](CCC(=O)O)NC(=O)C(C)(C)NC(=O)[C@@H](O)Cc1c[nH]cn1)[C@@H](C)O)[C@@H](C)O)C(C)C)C(=O)N[C@@H](C)C(=O)N[C@@H](Cc1c[nH]c2ccccc12)C(=O)N[C@@H](CC(C)C)C(=O)N[C@H](C(=O)N[C@@H](CCCNC(=N)N)C(=O)NCC(=O)N[C@@H](CCCNC(=N)N)C(=O)NCC(=O)O)C(C)C [Example B2.4, N^ε27 [(S)-(22,40-dicarboxy-10,19,24-trioxo-3,6,12,15-tetraoxa-9,18,23-triazatetracontan-1-oyl)]-N^α8-{3-[(2S)-2-hydroxy-3-(1H-imidazol-4-yl)propanoyl}-Aib^8,Glu^22,Arg^26,Lys^27,Arg^34]-GLP-1-(8-37)-peptide] ({Lactoyl(3-(imidazol-4-yl))}-[Aib]EGTFTSDVSSYLEEQAARK([AEEA-AEEA-γGlu-C18 diacid])FIAWLVRGRG-OH; C-terminus assumed)
0.22 nM	31 pM	CC[C@H](C)[C@H](NC(=O)[C@H](Cc1ccccc1)NC(=O)[C@H](CCC(=O)O)NC(=O)[C@H](CCCCNC(=O)COCCOCCNC(=O)COCCOCCNC(=O)CC[C@H](NC(=O)CCCCCCCCCCCCCCCCC(=O)O)C(=O)O)NC(=O)[C@H](C)NC(=O)[C@H](C)NC(=O)[C@H](CCCNC(=N)N)NC(=O)CNC(=O)[C@H](CCC(=O)O)NC(=O)[C@H](CC(C)C)NC(=O)[C@H](Cc1ccc(O)cc1)NC(=O)[C@H](CO)NC(=O)[C@H](CO)NC(=O)[C@@H](NC(=O)[C@H](CC(=O)O)NC(=O)[C@H](CO)NC(=O)[C@@H](NC(=O)[C@H](Cc1ccccc1)NC(=O)[C@@H](NC(=O)CNC(=O)[C@H](CCC(=O)O)NC(=O)C(C)(C)NC(=O)[C@@H](O)Cc1c[nH]cn1)[C@@H](C)O)[C@@H](C)O)C(C)C)C(=O)N[C@@H](C)C(=O)N[C@@H](Cc1c[nH]c2ccccc12)C(=O)N[C@@H](CC(C)C)C(=O)N[C@H](C(=O)N[C@@H](CCCNC(=N)N)C(=O)NCC(=O)N[C@@H](CCCNC(=N)N)C(=O)NCC(=O)O)C(C)C [Example B2.5, N^ε26 [(S)-(22,40-dicarboxy-10,19,24-trioxo-3,6,12,15-tetraoxa-9,18,23-triazatetracontan-1-oyl)]-N^α8-{3-[(2S)-2-hydroxy-3-(1H-imidazol-4-yl)propanoyl}-Aib^8,Arg^23,Arg^34]-GLP-1-(8-37)-peptide] ({Lactoyl(3-(imidazol-4-yl))}-[Aib]EGTFTSDVSSYLEGRAAK([AEEA-AEEA-γGlu-C18 diacid])EFIAWLVRGRG-OH; C-terminus assumed)
